From patent US9751869B2, “LXR modulators” (BRISTOL-MYERS SQUIBB COMPANY, priority 2013, dated 2017)
pEC50: −log10 of the molar value.

Biological target: T1, LXRβ (Homo sapiens, UniProt P55055)
T1 construct: Co-transfection expression plasmids, comprising full-length LXRα (pCMX-h LXRα or LXRβ (pCMX-hLXRβ)); expressed in transfected cells; host or cells: CV-1 African green monkey kidney cells, transient transfection with pCMX-hLXRβ
T1 sequence (P55055 1-460): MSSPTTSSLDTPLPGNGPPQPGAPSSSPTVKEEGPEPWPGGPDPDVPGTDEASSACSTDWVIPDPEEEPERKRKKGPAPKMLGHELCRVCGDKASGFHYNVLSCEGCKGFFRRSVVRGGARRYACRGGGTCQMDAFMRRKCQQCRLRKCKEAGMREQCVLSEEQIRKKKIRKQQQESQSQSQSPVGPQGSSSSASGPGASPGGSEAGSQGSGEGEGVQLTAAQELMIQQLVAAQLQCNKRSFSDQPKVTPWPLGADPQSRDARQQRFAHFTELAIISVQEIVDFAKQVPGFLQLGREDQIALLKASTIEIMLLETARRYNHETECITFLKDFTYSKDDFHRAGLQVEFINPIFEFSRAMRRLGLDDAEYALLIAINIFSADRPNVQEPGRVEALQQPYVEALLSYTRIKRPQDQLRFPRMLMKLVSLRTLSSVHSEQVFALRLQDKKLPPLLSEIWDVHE
T1 sequence (P19793 1-462 partner): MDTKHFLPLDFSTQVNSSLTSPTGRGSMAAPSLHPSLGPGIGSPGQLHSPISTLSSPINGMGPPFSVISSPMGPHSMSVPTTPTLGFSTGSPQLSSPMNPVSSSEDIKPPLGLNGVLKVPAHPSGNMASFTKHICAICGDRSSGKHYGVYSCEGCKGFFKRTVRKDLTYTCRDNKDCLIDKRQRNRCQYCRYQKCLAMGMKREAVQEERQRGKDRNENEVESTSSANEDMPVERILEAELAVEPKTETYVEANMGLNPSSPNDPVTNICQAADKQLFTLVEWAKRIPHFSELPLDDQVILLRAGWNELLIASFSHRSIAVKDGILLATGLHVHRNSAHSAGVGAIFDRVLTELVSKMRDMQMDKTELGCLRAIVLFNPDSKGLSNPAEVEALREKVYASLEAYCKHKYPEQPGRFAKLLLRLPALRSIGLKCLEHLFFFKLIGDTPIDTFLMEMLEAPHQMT
Test: LXR/LXRE co-transfection assay (luciferase reporter) in CV-1 cells, LXRβ
Assay type: cell-based
Conditions: for pEC50: CV-1 cells transfected with pCMX-hLXRβ and LXREx1-Tk-Luciferase, 20 hours incubation, read-out: LXRbeta agonism EC50; for Emax: CV-1 cells, relative to maximum response of high control N-(3-((4-fluorophenyl)-(naphthalene-2-sulfonyl)amino)propyl)-2,2-dimethylpropionamide, read-out: LXRbeta % EFFICACY
Summary of the method: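 Luciferase read-out after 20 h compound treatment at 37 °C of CV-1 cells carrying transfected hLXRβ plus one-copy LXRE reporter, endogenous RXR partnering. Sigmoidal fit of 10-point half-log curves (4 wells each) gave EC50; % efficacy versus maximal response of the propionamide reference agonist.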

Row | SMILES | pEC50 | Emax
1 | Cc1nc(-c2ccc(OC(F)(F)F)cc2)c(-c2cc(-c3cc(F)c(CO)c(S(C)(=O)=O)c3)ccc2-n2ccc(CO)n2)o1 [Example 322, (3-fluoro-4′-(3-(hydroxymethyl)-1H-pyrazol-1-yl)-3′-(2-methyl-4-(4-(trifluoromethoxy)phenyl)oxazol-5-yl)-5-(methylsulfonyl)biphenyl-4-yl)methanol] | 5.95 | 58%
2 | Cc1nc(-c2ccc(Cl)c(OC(F)F)c2)c(-c2cc(-c3cccc(S(C)(=O)=O)c3)ccc2-n2ccc(C(F)(F)F)n2)o1 [Example 355, 4-(4-chloro-3-(difluoromethoxy)phenyl)-2-methyl-5-(3′-(methylsulfonyl)-4-(3-(trifluoromethyl)-1H-pyrazol-1-yl)biphenyl-3-yl)oxazole] | 6.71 | 65%
3 | Cc1nc(-c2ccc(OC(F)(F)F)cc2)c(-c2cc(-c3cnc(CO)c(S(C)(=O)=O)c3)ccc2-n2cc(Cl)c(C(F)(F)F)n2)o1 [Example 314, (5-(4-(4-chloro-3-(trifluoromethyl)-1H-pyrazol-1-yl)-3-(2-methyl-4-(4-(trifluoromethoxy)phenyl)oxazol-5-yl)phenyl)-3-(methylsulfonyl)pyridin-2-yl)methanol] | 7.96 | 68%
4 | Cc1nc(-c2ccc(OC(F)(F)F)cc2)c(-c2cc(-c3cccc(S(C)(=O)=O)c3)ccc2-n2ccc(C(C)(F)F)n2)o1 [Example 442, 5-(4-(3-(1,1-difluoroethyl)-1H-pyrazol-1-yl)-3′-(methylsulfonyl)-[1,1′-biphenyl]-3-yl)-2-methyl-4-(4-(trifluoromethoxy)phenyl)oxazole] | 7.28 | 60%
5 | Cc1nc(-c2ccc3c(c2)OC(F)(F)O3)c(-c2cc(-c3cc(F)c(CO)c(S(C)(=O)=O)c3)ccc2-n2ccc(C(F)(F)F)n2)o1 [Example 349, (3′-(4-(2,2-difluorobenzo[d][1,3]dioxol-5-yl)-2-methyloxazol-5-yl)-3-fluoro-5-(methylsulfonyl)-4′-(3-(trifluoromethyl)-1H-pyrazol-1-yl)biphenyl-4-yl)methanol] | 8.10 | 72%
6 | Cn1nc(C(F)(F)C(N)=O)cc1-c1ccc(-c2cccc(S(C)(=O)=O)c2)cc1-n1nncc1-c1ccc(Cl)cc1Cl [Example 32, 2-(5-(3-(5-(2,4-dichlorophenyl)-1H-1,2,3-triazol-1-yl)-3′-(methylsulfonyl)-[1,1′-biphenyl]-4-yl)-1-methyl-1H-pyrazol-3-yl)-2,2-difluoroacetamide] | 5.75 | 43%
7 | Cc1cc(C(F)(F)F)nn1-c1ccc(-c2cccc(S(C)(=O)=O)c2)cc1-c1ocnc1-c1ccc(OC(F)(F)F)cc1 [Example 307, 5-{3′-(methylsulfonyl)-4-[5-methyl-3-(trifluoromethyl)-1H-pyrazol-1-yl]biphenyl-3-yl}-4-{4-[(trifluoromethyl)oxy]phenyl}-1,3-oxazole] | 7.04 | 98%
8 | Cc1nc(-c2ccc(OC(F)(F)F)cc2)c(-c2cc(-c3cccc(S(C)(=O)=O)c3)ccc2-n2ccc(COC(N)=O)n2)o1 [Example 374, (1-(3-(2-methyl-4-(4-(trifluoromethoxy)phenyl)oxazol-5-yl)-3′-(methylsulfonyl)-[1,1′-biphenyl]-4-yl)-1H-pyrazol-3-yl) methyl carbamate] | 6.38 | 47%
9 | Cc1nc(-c2ccc3c(c2)OC(F)(F)O3)c(-c2cc(-c3cc(F)c(CO)c(S(C)(=O)=O)c3)ccc2-c2cc(C(F)(F)C#N)nn2C)o1 [Example 47, 2-(5-(3-(4-(2,2-difluorobenzo[d][1,3]dioxol-5-yl)-2-methyloxazol-5-yl)-3′-fluoro-4′-(hydroxymethyl)-5′-(methylsulfonyl)biphenyl-4-yl)-1-methyl-1H-pyrazol-3-yl)-2,2-difluoroacetonitrile] | 6.18 | 72%
10 | Cn1nc(C(F)(F)C#N)cc1-c1ccc(-c2cccc(S(C)(=O)=O)c2)cc1-n1nncc1-c1ccc(OC(F)(F)F)cc1 [Example 30, 2,2-difluoro-2-(1-methyl-5-(3′-(methylsulfonyl)-3-(5-(4-(trifluoromethoxy)phenyl)-1H-1,2,3-triazol-1-yl)-[1,1′-biphenyl]-4-yl)-1H-pyrazol-3-yl)acetonitrile] | 5.96 | 15%
